Measurements: patent US11666566B2, “Formulations and pharmacokinetics of deuterated benzoquinoline inhibitors of vesicular monoamine transporter 2” (AUSPEX PHARMACEUTICALS, INC., priority 2012, dated 2023)
Read-outs that look alike come from different tables or passages of the source.

What was measured:
[1] = Phase 1 pharmacokinetic study, single oral 25 mg dose of d6-tetrabenazine or tetrabenazine (immediate release, powder in capsule), two-period crossover; format: in vivo, human; settings: for Ratio of LS Means, AUCinf / Ratio of LS Means, AUClast / Ratio of LS Means, Cmax / Ratio of LS Means, t1/2: d6-tetrabenazine 25 mg (test) to tetrabenazine 25 mg (reference), ANOVA; for AUCinf / Cmax / Tmax / t1/2 / AUClast: plasma analyte, single oral 25 mg d6-tetrabenazine or tetrabenazine; for AUCinf / Cmax / Tmax / t1/2 / AUClast / AUCinf (AUClast presented for parent drug as AUCinf not calculable): fasted, mean; for AUCinf (AUClast presented for parent drug as AUCinf not calculable): parent drug in plasma, single oral 25 mg
Protocol: A Phase 1 pharmacokinetic study was conducted in 24 healthy extensive and intermediate CYP2D6 metabolizer volunteers receiving oral 25 mg doses of d6-tetrabenazine or tetrabenazine to compare the relative bioavailability and pharmacokinetics of single oral doses of d6-tetrabenazine and its metabolites d6-α-HTBZ and d6-β-HTBZ with their non-deuterated equivalents (tetrabenazine, α-HTBZ and β-HTBZ) as well as the corresponding O-desmethyl metabolites of α-HTBZ and β-HTBZ. Subjects received a single oral dose of 25 mg of d6-tetrabenazine or tetrabenazine after an overnight fast, as a powder in capsule, in Period 1 and following washout of at least 7 days. Patients were crossed over to receive the other treatment in Period 2. In each period, plasma samples were collected over 72 hours post-dose.
Pharmacokinetic results are shown below in Table 37 and FIG. 3, results are presented as Mean (% CV) for Cmax, AUC and t1/2 (AUClast presented for parent drug as AUCinf not calculable), and as Mean (range) for Tmax. The increased exposure was principally attributable to increases in half-life and was associated with proportional reductions in O-desmethyl metabolites of HTBZ.
The effect of deuteration on key pharmacokinetic parameters was evaluated by comparing d6-tetrabenazine (test) to tetrabenazine (reference) using an analysis of variance (ANOVA) model for a two-period crossover including factors Sequence, Treatment, Period and Subject. Pharmacokinetic parameters were log-transformed before analysis.

[2] = human plasma; cited from earlier work
[3] = co-administration of tetrabenazine and paroxetine, compared to tetrabenazine alone; cited from earlier work
[4] = format: in vitro ADME
Description: d6-Tetrabenazine has been designed with the intent to improve the pharmacokinetic profile of active metabolites α-HTBZ and β-HTBZ. The CYP mediated cleavage of the carbon-deuterium bonds within the trideuterated methyl groups (CD3) of d6-tetrabenazine is slower than the cleavage of the carbon-hydrogen bonds in the methyl groups (CH3) of tetrabenazine, an effect that selectively attenuated O-demethylation of deuterated α-HTBZ and β-HTBZ (d6-α-HTBZ and d6-β-HTBZ) in in vitro studies.
The spectrum of metabolites produced by d6-tetrabenazine is expected to be similar to that in patients with reduced CYP2D6 metabolism who receive tetrabenazine. This is based on in vitro metabolism studies and a drug interaction study of tetrabenazine and paroxetine. In the drug interaction study, co-administration of tetrabenazine and paroxetine increased systemic exposure to the α-HTBZ and β-HTBZ metabolites by 3- to 9-fold, respectively, compared to tetrabenazine alone (Xenazine® U.S. prescribing information). […] Administration of d6-tetrabenazine to healthy volunteers led to an approximate 2-fold increase in systemic exposure to α-HTBZ and β-HTBZ and proportional reductions in O-desmethyl metabolites compared to tetrabenazine. […]

COc1cc2c(cc1OC)[C@H]1C[C@H](O)[C@H](CC(C)C)CN1CC2 [β-HTBZ, beta-dihydrotetrabenazine]
Ratio of LS Means, AUCinf [1]: 235.8% | Ratio of LS Means, AUClast [1]: 240.1% | Ratio of LS Means, Cmax [1]: 145.8% | Ratio of LS Means, t1/2 [1]: 153.0% | AUCinf [1]: 74.0 ng·h/mL | Cmax [1]: 20.5 ng/mL | Tmax [1]: 1.00 h | t1/2 [1]: 2.95 h | half-lives [2]: 5 h | increase in systemic exposure [3]: 9 fold

alpha-dihydrotetrabenazine [α-HTBZ]
Ratio of LS Means, AUCinf [1]: 213.6% | Ratio of LS Means, AUClast [1]: 214.8% | Ratio of LS Means, Cmax [1]: 113.7% | Ratio of LS Means, t1/2 [1]: 174.7% | AUCinf [1]: 189 ng·h/mL | Cmax [1]: 41.2 ng/mL | Tmax [1]: 1.00 h | t1/2 [1]: 5.47 h | half-lives [2]: 7 h | increase in systemic exposure [3]: 3 fold

COc1cc2c(cc1O)C1CC(O)C(CC(C)C)CN1CC2 (stereo not drawn) [10-ODM-β-HTBZ]
AUClast [1]: 3.0 ng·h/mL | Cmax [1]: 1.63 ng/mL | Tmax [1]: 1.25 h

[2H]C([2H])([2H])Oc1cc2c(cc1OC([2H])([2H])[2H])[C@H]1C[C@@H](O)[C@H](CC(C)C)CN1CC2 [d6-α-HTBZ, deuterated alpha-dihydrotetrabenazine]
less of the O-desmethyl metabolites produced [4]: 69-87% | AUCinf [1]: 373 ng·h/mL | Cmax [1]: 46.1 ng/mL | Tmax [1]: 1.5 h | t1/2 [1]: 8.97 h

[2H]C([2H])([2H])Oc1cc2c(cc1OC([2H])([2H])[2H])[C@@H]1C[C@@H](O)[C@@H](CC(C)C)CN1CC2 [d6-β-HTBZ, deuterated beta-dihydrotetrabenazine]
less of the O-desmethyl metabolites produced [4]: 69-87% | AUCinf [1]: 171 ng·h/mL | Cmax [1]: 29.6 ng/mL | Tmax [1]: 1.50 h | t1/2 [1]: 5.00 h

COc1cc2c(cc1O)CCN1C[C@@H](CC(C)C)[C@@H](O)C[C@H]21 [9-O-desmethyl-β-HTBZ]
AUCinf [1]: 220 ng·h/mL | AUClast [1]: 205 ng·h/mL | Cmax [1]: 15.7 ng/mL | Tmax [1]: 1.75 h | t1/2 [1]: 16.2 h

[2H]C([2H])([2H])Oc1cc2c(cc1O)C1CC(O)C(CC(C)C)CN1CC2 (stereo not drawn) [d3-10-ODM-β-HTBZ]
AUClast [1]: 0.7 ng·h/mL | Cmax [1]: 0.59 ng/mL | Tmax [1]: 1.50 h

COc1cc2c(cc1OC)[C@@H]1CC(=O)[C@@H](CC(C)C)CN1CC2 (racemic) [Tetrabenazine, (3R,11bR)-1,3,4,6,7,11b-Hexahydro-9,10-dimethoxy-3-(2-methylpropyl)-2H-benzo[a]quinolizin-2-one, and (3S,11bS)-1,3,4,6,7,11b-hexahydro-9,10-dimethoxy-3-(2-methylpropyl)-2H-benzo[a]quinolizin-2-one, reference compound]
Cmax ([1]; human, read-out: Cmax): 0.314 ng/mL | AUCinf (AUClast presented for parent drug as AUCinf not calculable) [1]: 0.26 ng·h/mL

[2H]C([2H])([2H])Oc1cc2c(cc1O)CCN1C[C@@H](CC(C)C)[C@@H](O)C[C@H]21 [d3-9-O-desmethy1-β-HTBZ]
AUCinf [1]: 114 ng·h/mL | AUClast [1]: 92.4 ng·h/mL | Cmax [1]: 6.29 ng/mL | Tmax [1]: 1.75 h | t1/2 [1]: 16.9 h

COc1cc2c(cc1O)CCN1C[C@@H](CC(C)C)[C@H](O)C[C@H]21 [9-O-desmethyl-α-HTBZ]
AUCinf [1]: 49.9 ng·h/mL | AUClast [1]: 42.5 ng·h/mL | Cmax [1]: 5.05 ng/mL | Tmax [1]: 2.00 h | t1/2 [1]: 6.95 h

[2H]C([2H])([2H])Oc1cc2c(cc1O)CCN1C[C@@H](CC(C)C)[C@H](O)C[C@H]21 [d3-9-O-desmethyl-α-HTBZ]
AUClast [1]: 21.0 ng·h/mL | Cmax [1]: 2.15 ng/mL | Tmax [1]: 3.02 h

[2H]C([2H])([2H])Oc1cc2c(cc1OC([2H])([2H])[2H])[C@@H]1CC(=O)[C@@H](CC(C)C)CN1CC2 (racemic) [d6-Tetrabenazine, (3R,11bR)-1,3,4,6,7,11b-hexahydro-9,10-di(methoxy-d3)-3-(2-methylpropyl)-2H-benzo[a]quinolizin-2-one and (3S,11bS)-1,3,4,6,7,11b-hexahydro-9,10-di(methoxy-d3)-3-(2-methylpropyl)-2H-benzo[a]quinolizin-2-one]
systemic exposure to total (α+β)-HTBZ ([1]; compared to exposure following tetrabenazine administration): more than doubling | Cmax ([1]; human, read-out: Cmax): 0.327 ng/mL | AUCinf (AUClast presented for parent drug as AUCinf not calculable) [1]: 0.30 ng·h/mL
